Data set [1] in a line: Solid dose oral delivery, total T3 serum concentration AUC.
The target of data set [2] is amidase (EC 3.5.1.4; from Pseudomonas aeruginosa) (Pseudomonas aeruginosa, UniProt P11436). The note with it: Table 1; 37° C., 24 hours.
On the set-up of data set [3]: species or system Sprague-dawley rats. The note with it: rat, in vivo. How it is done:
(§1) Compounds were tested in Sprague-dawley rats (˜250 g). […] Rats were dosed immediately following 0 hour serum collection.

The conditions of data set [4]: rat, in vivo.
Data set [5] can be described thus: Solution dose oral delivery, T4 N-capped trimer vs. T4 sodium salt, total serum T4. Set-up: species or system Sprague-dawley rats. Particulars: rat, in vivo. Here is the method:
as §1

SMILES strings stand for the structures. Where a SMILES comes first, the peptide text is derived from it. [ ]: non-standard residue; d: D form. Thyronine(3,5,3'-I3) = N[C@@H](Cc1cc(I)c(Oc2ccc(O)c(I)c2)c(I)c1)C(=O)O

amidase (EC 3.5.1.4; from Pseudomonas aeruginosa), sequence (P11436 whole entry): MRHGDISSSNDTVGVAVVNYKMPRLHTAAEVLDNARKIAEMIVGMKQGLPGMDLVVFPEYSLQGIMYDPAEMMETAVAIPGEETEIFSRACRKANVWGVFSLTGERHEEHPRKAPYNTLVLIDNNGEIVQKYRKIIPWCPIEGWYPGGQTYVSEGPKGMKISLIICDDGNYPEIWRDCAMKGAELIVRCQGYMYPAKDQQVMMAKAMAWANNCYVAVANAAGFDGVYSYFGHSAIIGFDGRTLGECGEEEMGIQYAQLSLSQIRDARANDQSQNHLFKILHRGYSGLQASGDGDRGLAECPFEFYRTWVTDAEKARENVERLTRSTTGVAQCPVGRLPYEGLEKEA

Take `N[C@@H](CCC(=O)O)C(=O)N[C@@H](CCC(=O)O)C(=O)N[C@@H](CCC(=O)O)C(=O)N[C@@H](CCC(=O)O)C(=O)N[C@@H](CCC(=O)O)C(=O)N[C@@H](CCC(=O)O)C(=O)N[C@@H](CCC(=O)O)C(=O)N[C@@H](CCC(=O)O)C(=O)N[C@@H](CCC(=O)O)C(=O)N[C@@H](CCC(=O)O)C(=O)N[C@@H](CCC(=O)O)C(=O)N[C@@H](CCC(=O)O)C(=O)N[C@@H](CCC(=O)O)C(=O)N[C@@H](CCC(=O)O)C(=O)N[C@@H](CCC(=O)O)C(=O)N[C@@H](Cc1cc(I)c(Oc2ccc(O)c(I)c2)c(I)c1)C(=O)N[C@@H](CCC(=O)O)C(=O)N[C@@H](CCC(=O)O)C(=O)N[C@@H](CCC(=O)O)C(=O)N[C@@H](CCC(=O)O)C(=O)O` [20-Mer] (H-EEEEEEEEEEEEEEE[Thyronine(3,5,3'-I3)]EEEE-OH): in data set [1] (Study No. 12, rats), the “total AUC divided by total AUC for T3 sodium” value (shortened to “total AUC divided by total AUC”) is given as “(69%)”.

`CCCCCCCC(=O)N[C@@H](Cc1cc(I)c(Oc2ccc(OC(=O)CCCCCCC)c(I)c2)c(I)c1)C(=O)O` [C8T3(C8), N-Octanoyl-L-triiodothyronine(O-octanoyl)]: the “enzymatic release of T3, Amidase” value in data set [2] is 0.0.

Regarding `N[C@@H](CCC(=O)O)C(=O)N[C@@H](Cc1cc(I)c(Oc2ccc(O)c(I)c2)c(I)c1)C(=O)O` [C-Capped Dimer], the “total AUC divided by total AUC” value in data set [1] (Study No. 13, rats) is recorded as “(81%)”.

Take `N[C@@H](CCC(=O)O)C(=O)N[C@@H](CCC(=O)O)C(=O)N[C@@H](Cc1cc(I)c(Oc2ccc(O)c(I)c2)c(I)c1)C(=O)O` [C-Capped Trimer]: in data set [1] (Study No. 13, rats), the “total AUC divided by total AUC” value is recorded as “(89%)”.

Consider `N[C@@H](Cc1cc(I)c(Oc2ccc(O)c(I)c2)c(I)c1)C(=O)N[C@@H](CCC(=O)O)C(=O)O` [N-Capped Dimer], for which the “total AUC divided by total AUC” value in data set [1] (Study No. 11, rats) is on record as “(104%)”.

Regarding `N[C@@H](Cc1cc(I)c(Oc2ccc(O)c(I)c2)c(I)c1)C(=O)N[C@@H](CCC(=O)O)C(=O)N[C@@H](CCC(=O)O)C(=O)O` [T3 N-capped trimer, H-(T3)EE-OH], the “total AUC divided by total AUC” value in data set [1] (Study No. 11, rats) amounted to 123%. In addition, the “total AUC divided by total AUC” value in data set [1] (Study No. 11, rats, listed as N-Capped Trimer) was “(123%)”. The “total AUC divided by total AUC” value in data set [1] (Study No. 17, rats) was “(102%)”. In addition, in data set [3], the “increase of Cmax as compared to T3 sodium salt” value stood at 65.2%, the “increase of mean AUC relative to the T3 sodium salt AUC” value worked out at 50.3% and the “increase of Δmax relative to the Δmax of T3 sodium salt” value was determined as 75.9%. Besides, in data set [4], the “increase of Cmax over the corresponding T3 sodium salt control” value came to 50.8%, the “increase of mean AUC relative to the corresponding T3 sodium salt control” value was 72.1% and the “increase of Δmax over the corresponding T3 sodium salt control” value was determined as 85.6%.

For `CCCCCCCCCCCCCCCC(=O)Oc1ccc(Oc2c(I)cc(CC(N)C(=O)O)cc2I)cc1I.O=C(O)C(F)(F)F` (centres unmarked) [T3C16, Trioodothyronine Hexadeconoate—TFA], the “enzymatic release of T3, Amidase” value in data set [2] was determined as 1.2.

For `N[C@@H](Cc1cc(I)c(Oc2cc(I)c(O)c(I)c2)c(I)c1)C(=O)N[C@@H](CCC(=O)O)C(=O)N[C@@H](CCC(=O)O)C(=O)O` [T4 N-capped trimer], in data set [5] (Sprague-Dawley, po), the “Tmax (time to reach maximal concentration)” value came out at 10.2 h. Moreover, in data set [5], the “increase of Cmax as compared to the sodium salt” value worked out at 48%, the “increase of mean AUC relative to the T4 sodium salt AUC” value came out at 115% and the “increase of Δmax (Δ at Cmax) relative to the Δmax of T4 sodium salt” value is 68%. Also, in data set [5] (po), the “Cmax +/− SD” value amounted to 13.0 ± 0.6 ng/dL; the “Cmax, Percent of T4 sodium salt” value is 148%; the “Delta @ Cmax (change in total T4 serum levels from 0 hour level)” value stood at 6.7 ± 1.5 ng/dL; the “Delta @ Cmax, Percent of T4 sodium salt” value was 168%.

These data come from US7163918B2, “Iodothyronine compositions” (New River Pharmaceuticals Inc., priority 2000, dated 2007).
